Earlier results, collected in patent US20110092493A1, “Dose-controlled transdermal promethazine compositions and methods of use” (priority 2008, published 2011).
Where a name gives a salt, the structure may show the parent alone. Read-outs that look alike come from different tables or passages of the source.

Legend:
[1] = 50 mg applied to the wrist in topical pluronic lecithin organogel, 15 healthy volunteers
[2] = not given; remark: listed apart in the source
[3] = following intramuscular injection
[4] = oral administration
[5] = not given; remark: listed apart in the source
[6] = overall, most common adverse events
[7] = both 50 mg suppository treatments (generic, brand-name) vs oral syrup (50 mg)

Row | drowsiness, % of subjects [1] [%] | coefficient of variation for the area under the plasma concentration-versus-time curve (AUC) (50 mg suppository) | mean AUC from 0 to 24 hours (AUC0-24) (50 mg suppository) [ng·h/mL] | coefficient of variation for the area under the plasma concentration-versus-time curve (AUC) (oral syrup (50 mg)) | mean AUC from 0 to 24 hours (AUC0-24) (oral syrup (50 mg)) [ng·h/mL] | fraction of dose absorbed ([4]; on average) [%] | absolute bioavailability ([4]; limited by first-pass clearance) [%] | differences in AUC0-24 ([5]; 50 mg suppository treatments vs oral syrup (50 mg)) | maximum promethazine concentration compared with oral syrup [5, 7] | time to maximum promethazine concentration compared with oral syrup [5, 7] | Structure (SMILES) | sedation, % of subjects [1] [%] | adverse event: somnolence ([2]; 25 mg suppository) [%] | adverse event: somnolence ([2]; 50 mg oral) [%] | adverse event: somnolence ([2]; 50 mg suppository) [%] | adverse event: headache [2, 6] [%] | adverse event: somnolence [2, 6] [%] | plasma levels associated with adverse effects [3] [ng/mL]
1 | 73 | greater than 84% | 168 | greater than 84% | 268 | 88 | 25 |  |  |  | CC(CN1c2ccccc2Sc2ccccc21)N(C)C (centres unmarked) [promethazine] | 50 | 5 | 22 | 17 | 28 | 35 | 48
2 |  |  |  |  |  |  |  | no significant differences | lower | longer | CC(CN1c2ccccc2Sc2ccccc21)N(C)C (centres unmarked) [promethazine hydrochloride] |  |  |  |  |  |  | 
